In patent publication US20030083271A1, “Topoisomerase I selective cytotoxic sugar derivatives of indolopyrrolocarbazoles” (priority 2001, published 2003):

Legend:
[1] = tested on: P388 murine leukemia cells; assay: In vitro cell-based cytotoxicity, parental P388 cells; details: Mus musculus, 72 h, median cytotoxic concentration, 3 days continuous exposure
Outline: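 P388 cells plated at 8,000 cells/well, compounds serially diluted 24 h later and incubated 72 h at 37° C. Viability by MTS (333 μg/ml final) with phenazine methosulfate (25 μM final), absorbance at 492 nm; IC50 is concentration reducing absorbance to 50% of untreated control.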

P388/CPT45 cells = assay: Cytotoxicity in camptothecin-resistant P388/CPT45 cells relative to parental P388 (selectivity index R/S); type: cell-based, murine; details: IC50 P388/CPT45 cells divided by IC50 parental P388 cells
Outline: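 Murine P388 leukemia cells and their camptothecin-resistant P388/CPT45 subline were plated at 8,000 cells/well and exposed to serial compound dilutions for 72 h at 37 °C. Viability was read by MTS/PMS reduction at 492 nm, with IC50 taken against untreated cells. R/S is the P388/CPT45 IC50 divided by the parental P388 IC50.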

With `O=C1NC(=O)c2c1c1c3cc(F)c(F)cc3sc1c1c2c2cc(F)c(F)cc2n1[C@@H]1O[C@H](CF)C[C@H](O)[C@H]1O` [Example 9, 12-[4,6-Dideoxy-6-fluoro-β-D-glucopyranosyl]-2,3,9,10-tetrafluoro-5H, 13H-benzo[b]thienyl[2,3-a]pyrrolo[3,4-c]carbazole-5,7(6H)-dione] the IC50 [1] was 35 nM and the “Selectivity Index R/S” value (P388/CPT45 cells) was 120.2.

For `O=C1NC(=O)c2c1c1c3cc(F)ccc3[nH]c1c1c2c2cc(F)ccc2n1[C@@H]1O[C@H](CO)[C@@H](F)[C@H](O)[C@H]1O` [Example 24, 12-[4-Deoxy-4-fluoro-β-D-glucopyranosyl]-3,9-difluoro-12,13-dihydro-5H-indolo[2,3-a]pyrrolo[3,4-c]carbazole-5,7(6H)-dione], the IC50 [1] was 2 nM and the “Selectivity Index R/S” value (P388/CPT45 cells) was 379.0.

With `O=C1NC(=O)c2c1c1c3cc(F)c(F)cc3sc1c1c2c2cc(F)c(F)cc2n1[C@@H]1O[C@H](CF)[C@@H](F)[C@H](O)[C@H]1O` [Example 26, 12-[4,6-Difluoro-4,6-dideoxy-β-D-glucopyranosyl]-2,3,9,10-tetrafluoro-5H, 13H-benzo[b]thienyl[2,3-a]pyrrolo[3,4-c]carbazole-5,7(6H)-dione] the IC50 [1] was 11 nM and the “Selectivity Index R/S” value (P388/CPT45 cells) was 387.8.

In the case of `O=C1NC(=O)c2c1c1c3cc(F)ccc3[nH]c1c1c2c2cc(F)ccc2n1[C@@H]1O[C@H](CF)[C@@H](F)[C@H](O)[C@H]1O` [Example 27], the IC50 [1] is reported as 4 nM and the “Selectivity Index R/S” value (P388/CPT45 cells) is reported as 448.4.

With `O=C1NC(=O)c2c1c1c3cc(F)c(F)cc3sc1c1c2c2cc(F)c(F)cc2n1[C@@H]1O[C@H](CO)[C@@H](F)[C@H](O)[C@H]1O` [Example 33, 12-[4-Deoxy-4-fluoro-β-D-glucopyranosyl]-2,3,9,10-tetrafluoro-5H,13H-benzo[b]thienyl[2,3-a]pyrrolo[3,4-c]carbazole-5,7(6H)-dione] the IC50 [1] was under 3 nM and the “Selectivity Index R/S” value (P388/CPT45 cells) was over 1657.6.
